Reference: patent US10336697B2, “Spiro[cyclobutane-1,3′-indolin]-2′-one derivatives as bromodomain inhibitors” (Orion Corporation, priority 2015, dated 2019)

Molecular target: Bet BRD4 full length bromo-domain protein (Homo sapiens, UniProt O60885)
Assay: Bet bromodomain TR-FRET assay (displacement of acetyl histone peptide)
Type: binding
Conditions: Bet BRD4 full length bromodomain protein, 300 nM acetyl histone peptide substrate, read-out: IC50

Q: For `CN1CCC(CCNc2cc(NS(=O)(=O)c3ccc(F)cc3F)cc3c2NC(=O)C32CCC2)CC1` [Compound 28, 2,4-Difluoro-N-(7′-((2-(1-methylpiperidin-4-yl)ethyl)amino)-2′-oxospiro[cyclobutane-1,3′-indolin]-5′-yl)benzenesulfonamide], which IC50 is on record?
A: < 600 nM

Q: With `O=C(NC1CCCNC1)c1cc(NS(=O)(=O)c2ccc(F)cc2F)cc2c1NC(=O)C21CCC1` (single isomer, unassigned) [Compound 67, 5′-(2,4-Difluorophenylsulfonamido)-2′-oxo-N-(piperidin-3-yl)spiro[cyclobutane-1,3′-indoline]-7′-carboxamide] as the molecule, how does the IC50 read?
A: 600 to 1000 nM

Q: Which IC50 does the source give for `COc1ccccc1S(=O)(=O)Nc1cc(OC2CCN(C(C)=O)CC2)c2c(c1)C1(CCC1)C(=O)N2` [Compound-220] here?
A: < 600 nM

Q: For `COc1ccccc1S(=O)(=O)Nc1cc(OCCN2CCCC2)c2c(c1)C1(CCC1)C(=O)N2` [Compound 167, 2-Methoxy-N-(2′-oxo-7′-(2-(pyrrolidin-1-yl)ethoxy)spiro[cyclobutane-1,3′-indolin]-5′-yl)benzenesulfonamide], which IC50 is on record?
A: < 600 nM

Q: For `COc1ccccc1S(C)(=O)=Nc1cc([N+](=O)[O-])c2c(c1)C1(CCC1)C(=O)N2` (stereo not drawn) [Compound-181, 5′-(((2-Methoxyphenyl)(methyl)(oxo)-l6-sulfanylidene)amino)-7′-nitrospiro[cyclobutane-1,3′-indolin]-2′-one], which IC50 is on record?
A: > 1000 nM

Q: With `O=C1Nc2c(OC3CCS(=O)(=O)CC3)cc(NS(=O)(=O)c3ccc(Cl)cc3F)cc2C12CCC2` [Compound 144, 4-Chloro-N-(7′-((1,1-dioxidotetrahydro-2H-thiopyran-4-yl)oxy)-2′-oxospiro[cyclobutane-1,3′-indolin]-5′-yl)-2-fluorobenzenesulfonamide] as the molecule, how does the IC50 read?
A: < 600 nM

Q: Which IC50 does the source give for `COc1ccccc1S(=O)(=O)Nc1cc(NCC2CC2)c2c(c1)C1(CCC1)C(=O)N2` [Compound 13, N-(7′-((cyclopropylmethyl)amino)-2′-oxospiro[cyclobutane-1,3′-indolin]-5′-yl)-2-methoxybenzenesulfonamide] here?
A: < 600 nM

Q: `CN1CCOC(COc2cc(NS(=O)(=O)c3ccc(Cl)cc3F)cc3c2NC(=O)C32CCC2)C1` (stereo not drawn) [compound 194, 4-Chloro-2-fluoro-N-(7′-((4-methylmorpholin-2-yl)methoxy)-2′-oxospiro[cyclobutane-1,3′-indolin]-5′-yl)benzenesulfonamide] was tested. Which IC50 did it give?
A: < 600 nM

Q: `O=C1Nc2c(-c3ccnc(O)c3)cc(NS(=O)(=O)c3ccc(F)cc3F)cc2C12CCC2` [Compound 100, 2,4-difluoro-N-(7′-(2-hydroxypyridin-4-yl)-2′-oxospiro[cyclobutane-1,3′-indolin]-5′-yl)benzenesulfonamide] was tested. Which IC50 did it give?
A: > 1000 nM

Q: With `CN1CCCC(Oc2cc(NS(=O)(=O)c3ccc(Cl)cc3F)cc3c2NC(=O)C32CCC2)C1` (stereo not drawn) [Compound 131, 4-Chloro-2-fluoro-N-(7′-((1-methylpiperidin-3-yl)oxy)-2′-oxospiro[cyclobutane-1,3′-indolin]-5′-yl)benzenesulfonamide] as the molecule, how does the IC50 read?
A: 600 to 1000 nM

Q: `COc1ccc(-c2cc(NS(=O)(=O)c3ccc(F)cc3F)cc3c2NC(=O)C32CCC2)cn1` [Compound 3, 2,4-Difluoro-N-(7′-(6-methoxypyridin-3-yl)-2′-oxospiro [cyclobutane-1,3′-indolin]-5′-yl)benzenesulfonamide] was tested. Which IC50 did it give?
A: 600 to 1000 nM

Q: For `CN1CCC(NC(=O)c2cc(NS(=O)(=O)c3ccc(F)cc3F)cc3c2NC(=O)C32CCC2)C1` (stereo not drawn) [Compound 52, 5′-(2,4-Difluorophenylsulfonamido)-N-(1-methylpyrrolidin-3-yl)-2′-oxospiro[cyclobutane-1,3′-indoline]-7′-carboxamide], which IC50 is on record?
A: < 600 nM

Q: With `COc1ccccc1S(=O)(=O)Nc1cc(OCC2CCN(C)CC2)c2c(c1)C1(CCC1)C(=O)N2` [Compound 146, 2-Methoxy-N-(7′-((1-methylpiperidin-4-yl)methoxy)-2′-oxospiro[cyclobutane-1,3′-indolin]-5′-yl)benzenesulfonamide] as the molecule, how does the IC50 read?
A: < 600 nM

Q: How did the IC50 turn out when `O=C1Nc2c(OC3CCOCC3)cc(NS(=O)(=O)c3ccc(Cl)cc3F)cc2C12CCC2` [Compound 142, 4-Chloro-2-fluoro-N-(2′-oxo-7′-((tetrahydro-2H-pyran-4-yl)oxy)spiro[cyclobutane-1,3′-indolin]-5′-yl)benzenesulfonamide] was run?
A: < 600 nM

Q: How did the IC50 turn out when `COc1ccccc1S(=O)(=O)Nc1cc(OC2CCN(C3CC3)CC2)c2c(c1)C1(CCC1)C(=O)N2` [Compound 137, N-(7′-((1-cyclopropylpiperidin-4-yl)oxy)-2′-oxospiro[cyclobutane-1,3′-indolin]-5′-yl)-2-methoxybenzenesulfonamide] was run?
A: < 600 nM

Q: Which IC50 does the source give for `O=C1Nc2c(Nc3ccncc3)cc(NS(=O)(=O)c3ccc(F)cc3F)cc2C12CCC2` [Compound 62, 2,4-Difluoro-N-(2′-oxo-7′-(pyridin-4-ylamino)spiro[cyclobutane-1,3′-indolin]-5′-yl)benzenesulfonamide] here?
A: > 1000 nM

Q: With `CC(C)(C)OC(=O)N1CCC(Nc2cc(NS(=O)(=O)c3ccc(F)cc3F)cc3c2NC(=O)C32CCC2)C(F)C1` (stereo not drawn) [Compound 37, tert-Butyl 4-((5′-(2,4-difluorophenylsulfonamido)-2′-oxospiro[cyclobutane-1,3′-indolin]-7′-yl)amino)-3-fluoro piperidine-1-carboxylate] as the molecule, how does the IC50 read?
A: > 1000 nM

Q: `CN1CCC(c2cc(NS(=O)(=O)c3ccc(F)cc3F)cc3c2NC(=O)C32CCC2)CC1` [Compound 89, 2,4-Difluoro-N-(7′-(1-methylpiperidin-4-yl)-2′-oxospiro[cyclobutane-1,3′-indolin]-5′-yl)benzenesulfonamide] was tested. Which IC50 did it give?
A: < 600 nM

Q: With `NC1(COc2cc(NS(=O)(=O)c3ccc(Cl)cc3F)cc3c2NC(=O)C32CCC2)CC1` [compound 207, N-(7′-((1-aminocyclopropyl)methoxy)-2′-oxospiro[cyclobutane-1,3′-indolin]-5′-yl)-4-chloro-2-fluorobenzenesulfonamide] as the molecule, how does the IC50 read?
A: < 600 nM

Q: With `CN1CCCC(Nc2cc(NS(=O)(=O)c3ccc(F)cc3F)cc3c2NC(=O)C32CCC2)C1` (single isomer, unassigned) [Compound 34, 2,4-Difluoro-N-(7′-((1-methylpiperidin-3-yl)amino)-2′-oxospiro[cyclobutane-1,3′-indolin]-5′-yl)benzenesulfonamide] as the molecule, how does the IC50 read?
A: < 600 nM

Q: With `O=C1Nc2c(OC3CCNCC3)cc(NS(=O)(=O)c3ccc(Cl)cc3F)cc2C12CCC2` [Compound-197, 4-Chloro-2-fluoro-N-(2′-oxo-7′-(piperidin-4-yloxy)spiro-[cyclobutane-1,3′-indolin]-5′-yl)benzene sulfonamide] as the molecule, how does the IC50 read?
A: < 600 nM

Q: With `COc1ccccc1S(=O)(=O)Nc1cc(OCCN(C)C)c2c(c1)C1(CCC1)C(=O)N2` [Compound 162, N-(7′-(2-(dimethylamino)ethoxy)-2′-oxospiro[cyclobutane-1,3′-indolin]-5′-yl)-2-methoxybenzenesulfonamide] as the molecule, how does the IC50 read?
A: < 600 nM

Q: How did the IC50 turn out when `CCN1CCC(Oc2cc(NS(=O)(=O)c3ccccc3OC)cc3c2NC(=O)C32CCC2)CC1` [Compound 135, N-(7′-((1-ethylpiperidin-4-yl)oxy)-2′-oxospiro[cyclobutane-1,3′-indolin]-5′-yl)-2-methoxybenzenesulfonamide] was run?
A: < 600 nM

Q: How did the IC50 turn out when `COc1ccccc1S(=O)(=O)Nc1cc(NC2=CC(=O)NCC2)c2c(c1)C1(CCC1)C(=O)N2` [Compound 77, 2-Methoxy-N-(2′-oxo-7′-((6-oxo-1,2,3,6-tetrahydropyridin-4-yl)amino)spiro[cyclobutane-1,3′-indolin]-5′-yl)benzenesulfonamide] was run?
A: < 600 nM

Q: For `CCN(C)CCOc1cc(NS(=O)(=O)c2ccccc2OC)cc2c1NC(=O)C21CCC1` [compound 196, N-(7′-(2-(ethyl(methyl)amino)ethoxy)-2′-oxospiro[cyclobutane-1,3′-indolin]-5′-yl)-2-methoxybenzenesulfonamide], which IC50 is on record?
A: < 600 nM

Q: With `O=C1Nc2c(-c3ccc4c(c3)CNCC4)cc(NS(=O)(=O)c3ccc(F)cc3F)cc2C12CCC2` [Compound 88, 2,4-Difluoro-N-(2′-oxo-7′-(1,2,3,4-tetrahydroisoquinolin-7-yl)spiro-[cyclobutane-1,3′-indolin]-5′-yl)benzenesulfonamide] as the molecule, how does the IC50 read?
A: < 600 nM

Q: How did the IC50 turn out when `CN1CCC(Oc2cc(NC(=O)c3ccc(Cl)cc3F)cc3c2NC(=O)C32CCC2)CC1` [compound 224, 4-Chloro-2-fluoro-N-(7′-((1-methylpiperidin-4-yl)oxy)-2′-oxospiro[cyclobutane-1,3′-indolin]-5′-yl)benzamide] was run?
A: > 1000 nM

Q: How did the IC50 turn out when `O=C1Nc2c(NC3CCCCC3)cc(NS(=O)(=O)c3ccc(F)cc3F)cc2C12CCC2` [Compound 20, N-(7′-(cyclohexylamino)-2′-oxospiro[cyclobutane-1,3′-indolin]-5′-yl)-2,4-difluorobenzenesulfonamide] was run?
A: > 1000 nM

Q: How did the IC50 turn out when `CN1CCC(Oc2cc(NS(=O)(=O)c3ccc(F)cc3Cl)cc3c2NC(=O)C32CCC2)CC1` [Compound 134, 2-Chloro-4-fluoro-N-(7′-((1-methylpiperidin-4-yl)oxy)-2′-oxospiro[cyclobutane-1,3′-indolin]-5′-yl)benzenesulfonamide] was run?
A: < 600 nM

Q: Which IC50 does the source give for `CN1CCC(Oc2cc(NS(=O)(=O)c3ccc(F)cc3Br)cc3c2NC(=O)C32CCC2)CC1` [Compound 132, 2-Bromo-4-fluoro-N-(7′-((1-methylpiperidin-4-yl)oxy)-2′-oxospiro[cyclobutane-1,3′-indolin]-5′-yl)benzenesulfonamide] here?
A: < 600 nM

Q: `CC(Oc1cc(NS(=O)(=O)c2ccc(Cl)cc2F)cc2c1NC(=O)C21CCC1)c1ccccn1` (single isomer, unassigned) [Compound 156, 4-Chloro-2-fluoro-N-(2′-oxo-7′-(1-(pyridin-2-yl)ethoxy)spiro[cyclobutane-1,3′-indolin]-5′-yl)benzenesulfonamide] was tested. Which IC50 did it give?
A: < 600 nM

Q: Which IC50 does the source give for `O=C1Nc2c(OCC3CNCCO3)cc(NS(=O)(=O)c3ccc(Cl)cc3F)cc2C12CCC2` (stereo not drawn) [compound 202, 4-Chloro-2-fluoro-N-(7′-(morpholin-2-ylmethoxy)-2′-oxospiro[cyclobutane-1,3′-indolin]-5′-yl)benzenesulfonamide] here?
A: < 600 nM

Same assay, conditions: IC50, Bet BRD4 full length bromodomain protein, 300 nM acetyl histone peptide substrate

Q: Which IC50 does the source give for `COc1ccccc1S(=O)(=O)Nc1cc(OC(=O)N2CCN(C)CC2)c2c(c1)C1(CCC1)C(=O)N2` [Compound 169, 5′-((2-Methoxyphenyl)sulfonamido)-2′-oxospiro[cyclobutane-1,3′-indolin]-7′-yl 4-methylpiperazine-1-carboxylate] here?
A: < 600 nM
